Measurements: patent US8071642B2, “Dimethyl amino ethyl ether psoralens and methods for their production and use” (Rutgers, The State University of New Jersey, priority 2007, dated 2011)
Counter-ions that a name gives are not always drawn.

System: PAM 212 keratinocytes
Experiment: Photo-induced growth inhibition assay against PAM 212 keratinocytes (UVA activated)
Format: cell-based
Settings: 1.28 J/cm^2 UVA (320-400 nm), cells counted after 4-5 days of growth, read-out: IC50 (concentration at which photoactivated test compound inhibited growth by 50%)
Experimental: The photobiological activity was assayed using a keratinocyte cell line grown in a monolayer culture. In this assay, PAM 212 keratinocytes were grown in Dulbecco's Modified Eagle's medium supplemented with 10% newborn calf serum in a 5% carbon dioxide incubator. Cells were inoculated into 6-well Falcon plastic culture dishes at 25,000 cells per well. After 24 hours, the medium was charged to fresh growth medium supplemented with increasing concentrations of the test compounds or the control medium. Controls and test concentrations were analyzed in triplicate.
These plates were incubated in a 37° C. carbon dioxide incubator. After 30 minutes, culture plates were exposed to UVA light (UVA, 320-400 nm) emitted from a bank of four BLB fluorescence light tubes (F40 BL, Sylvania) placed approximately 10 cm above the cell culture plates. The incident light on the culture plates was 2.4 mW/cm^2 as measured with an International Light UV radiometer, Model IL442A). […]
After completion of the irradiation phase, the cell culture medium was drained, the cells were refed with fresh growth medium and then re-incubated with carbon dioxide incubator to allow for cell growth. […] The cells were detached from the plates with trypsin and counted in a Coulter Counter. For control cells or for cells treated with test compounds, cell growth was determined as a percentage of control.

| Molecule | IC50 [µM] |
| --- | --- |
| 8-[2-(N,N-dimethylamino)ethoxyl-psoralen hydrochloride salt [Formula I (R=H, R1=H, A-B=—CH═CH—)] | 0.012 |
| CN(C)CCOc1c2c(cc3ccc(=O)oc13)CCO2 [Formula I R=H, R1=H, A-B=—CH2—CH2—, 8-[2-(N,N-dimethylamino)ethoxy]-4′,5′-dihydropsoralen hydrochloride salt] | 13 |
